This note sets out measurements from ChEMBL document CHEMBL1152995, “Combined real-time PCR and pyrosequencing strategy for objective, sensitive, specific, and high-throughput identification of reduced susceptibility to penicillins in Neisseria meningitidis” (2008).

Assay [1] relates to Neisseria meningitidis. Description: Antibacterial activity against penicillin-intermediate resistant Neisseria meningitidis clinical isolates harbouring altered penA gene after 24 hrs by Etest method. The format is functional.
For assay [2], the system named is Neisseria meningitidis. Description: Antibacterial activity against penicillin-intermediate resistant Neisseria meningitidis after 24 hrs by Etest method. The format is functional.

Converted amounts (≈) assume the structure as drawn.

In the case of `CC1(C)S[C@@H]2[C@H](NC(=O)[C@H](N)c3ccccc3)C(=O)N2[C@H]1C(=O)O` [AMPICILLIN], the MIC (in general, the lowest concentration that inhibits growth of the organism) in the assay on Neisseria meningitidis [1] is > 0.064 µg/mL.

As for `CO/N=C(\C(=O)N[C@@H]1C(=O)N2C(C(=O)O)=C(COC(C)=O)CS[C@H]12)c1csc(N)n1` [CEFOTAXIME], in the assay on Neisseria meningitidis [1], the MIC was ≤ 0.012 µg/mL.

On to `CC1(C)S[C@@H]2[C@H](NC(=O)Cc3ccccc3)C(=O)N2[C@H]1C(=O)O` [PENICILLIN G], for which the MIC against Neisseria meningitidis [2] is 0.064 µg/mL (≈ 0.191 µM); in the assay with Neisseria meningitidis [1], > 0.094 µg/mL.
